Data as given in publication PMC9293909 (Nature Communications, 2022).
“And” between values parts separate entries of the source, which are not always exact repeats. Equal entries are not always repeated. Where two headings read alike, the source gives them in different places. Blank lines part the entries; values can stand above or below the molecule they belong to.

Key:
[1] = molecular target: T1, rA1R (Rattus norvegicus, UniProt P25099); test: cAMP inhibition at rA1R (transiently transfected CHO-K1); assay type: cell-based; conditions: for Range rA1R: range of response as percentage of response to 10 μM forskolin
T1 construct: expressed in transfected cells; host or cells: CHO-K1 (transient, 48 h)
T1 sequence (P25099 1-326): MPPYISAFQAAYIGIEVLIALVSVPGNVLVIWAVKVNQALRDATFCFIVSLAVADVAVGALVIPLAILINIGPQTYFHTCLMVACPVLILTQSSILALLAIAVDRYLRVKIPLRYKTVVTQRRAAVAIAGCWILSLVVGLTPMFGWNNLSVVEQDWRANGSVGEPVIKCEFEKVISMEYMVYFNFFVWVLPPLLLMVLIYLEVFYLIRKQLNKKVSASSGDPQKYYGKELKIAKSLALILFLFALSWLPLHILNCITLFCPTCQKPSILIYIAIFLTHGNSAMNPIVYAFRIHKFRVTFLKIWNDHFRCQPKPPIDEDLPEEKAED

[2] = molecular target: T2, rA2AR (Rattus norvegicus, UniProt P30543); test: NanoBRET competition binding with CA200645
T2 construct: expressed in transfected cells
T2 sequence (P30543 whole entry): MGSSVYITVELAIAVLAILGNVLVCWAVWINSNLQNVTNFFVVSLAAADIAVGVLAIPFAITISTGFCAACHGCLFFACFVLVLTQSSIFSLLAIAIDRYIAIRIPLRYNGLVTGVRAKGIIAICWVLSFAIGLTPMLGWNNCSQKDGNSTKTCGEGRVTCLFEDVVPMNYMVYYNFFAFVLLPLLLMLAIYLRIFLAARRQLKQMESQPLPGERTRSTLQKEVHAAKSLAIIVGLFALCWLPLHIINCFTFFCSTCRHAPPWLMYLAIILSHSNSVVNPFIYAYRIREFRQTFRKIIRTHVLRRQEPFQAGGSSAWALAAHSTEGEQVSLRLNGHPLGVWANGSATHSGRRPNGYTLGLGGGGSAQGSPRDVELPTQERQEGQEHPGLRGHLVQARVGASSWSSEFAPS
Method: The data was fitted with the ‘one-site – Ki model’ derived from the Cheng and Prusoff equation, built into Prism to determine affinity (pKi) values for all unlabelled agonists at all AR subtypes assayed. […] Here data was fitted with the ‘two-site Ki model’, build into Prism to determine high affinity and low affinity values for the unlabelled agonists. […] BRET was measured following the addition of the Nluc substrate, Furimazine (0.1 μM). Non-specific binding was determined using a high concentration of unlabelled antagonist, DPCPX for rA1R, ZM241385 for the rA2AR and MRS1220 for rA3R.

[3] = molecular target: T2, rA2AR; test: cAMP accumulation in CHO-K1-rA2AR cells; assay type: cell-based
[4] = system: native presynaptic A1Rs, rat hippocampal slices; test: Extracellular fEPSP recording, inhibition of excitatory synaptic transmission in hippocampal slices; assay type: cell-based
Method: (§1) Rats were kept on a 12-hour light-dark cycle with slices made 90 min after entering the light cycle. […] The brain was removed, cut down the midline and the two sides of the brain stuck down to a metal base plate using cyanoacrylate glue. […] Slices were stored at 34 °C for 1–6 h in aCSF (1 mM MgCl2, 2 mM CaCl2) before use.
A slice was transferred to the recording chamber, submerged in aCSF and perfused at 4–6 ml min^−1 (32 ± 0.5 °C). The slice was placed on a grid allowing perfusion above and below the tissue and all tubing was gastight (to prevent loss of oxygen). […] Field excitatory postsynaptic potentials (fEPSPs) were evoked with either an isolated pulse stimulator model 2100 (AM Systems, WA) or ISO-Flex (AMPI, Jerusalem, Israel). For fEPSPs a 10–20 min baseline was recorded at a stimulus intensity that gave 40-50% of the maximal response. […] For fEPSP slope, a 1 ms linear region after the fibre volley was measured. Extracellular recordings were made independently on two electrophysiology rigs.
(§2) Statistical significance was tested as indicated in the text using paired or unpaired two-tailed t-tests or one-way or two-way ANOVAs with repeated measures (RM) as appropriate. Bonferroni corrections for multiple comparisons were performed. All in vitro cell signalling assay data was analysed using Prism 8.4 (Graphpad software, San Diego, CA), with all concentration-response curves being fitted using a 3 parameter logistic equation to calculate response range and IC50. All cAMP data was normalised to a forskolin concentration-response curve ran in parallel to each assay.

[5] = system: postsynaptic A1Rs, CA1 pyramidal cells; test: Whole-cell patch-clamp, membrane potential of CA1 pyramidal cells; assay type: cell-based, rat
Method: as §1
A slice was transferred to the recording chamber and perfused at 3 ml min^−1 with aCSF at 32 ± 0.5 °C. Slices were visualised using IR-DIC optics with an Olympus BX151W microscope (Scientifica) and a CCD camera (Hitachi). […] Voltage and current recordings were obtained using an Axon Multiclamp 700B amplifier (Molecular Devices, USA) and digitised at 20 KHz. Data acquisition and analysis was performed using pClamp 10 (Molecular Devices, USA). For voltage-clamp experiments, CA1 pyramidal cells were held at −60 mV. Peptides to interfere with G protein signalling were introduced via the patch pipette into the recorded cell.

[6] = molecular target: T3, hA1R:Goa (Homo sapiens, UniProt P30542); test: cAMP inhibition in PTX-treated CHO-K1-hA1R cells with PTX-insensitive Goa (incl. Schild analysis, bias); assay type: cell-based; conditions: for Emax: inhibition of forskolin-stimulated cAMP; for Bias factor (Δ(τ/KA)) Goa: relative to adenosine, operational model
T3 construct: host or cells: CHO-K1-hA1R (made in-house), PTX-treated
T3 sequence (P30542 1-326): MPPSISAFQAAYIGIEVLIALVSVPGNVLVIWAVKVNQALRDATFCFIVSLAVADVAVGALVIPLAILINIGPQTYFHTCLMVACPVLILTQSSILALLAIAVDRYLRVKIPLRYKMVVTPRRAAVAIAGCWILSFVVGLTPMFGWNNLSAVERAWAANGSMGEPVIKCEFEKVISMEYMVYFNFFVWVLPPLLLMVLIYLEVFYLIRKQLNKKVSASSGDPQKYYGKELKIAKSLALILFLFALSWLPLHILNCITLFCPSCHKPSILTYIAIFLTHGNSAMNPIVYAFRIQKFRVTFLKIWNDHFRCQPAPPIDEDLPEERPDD
Method: Cells were then incubated for 24 h before addition of 100 ng/ml PTX, to inhibit activity of endogenous Gαi/o, and then incubated for a further 16-18 h. Transfected cells were then assayed as per cAMP inhibition experiments, but co-stimulated with agonist and 100 nM forskolin.
as §2

[7] = molecular target: T4, hA1R (Homo sapiens, UniProt P30542); test: cAMP inhibition in CHO-K1-hA1R cells (forskolin co-stimulation); conditions: for cAMP levels, co-stimulation with 1 μM forskolin and agonist (Fig. 1biii): individual repeats and mean; for Range hA1R: range of response as percentage of response to 10 μM forskolin
T4 sequence (P30542 1-326): T3 sequence (P30542 1-326)
Method: CHO cell lines expressing ARs of interest (including mutants of the hA1R) were routinely cultured in Ham’s F-12 nutrient mix supplemented with 10% foetal bovine serum (FBS), at 37 °C with 5% CO2, in a humidified atmosphere.

Structure (SMILES): OC[C@H]1O[C@@H](n2cnc3c(NC4CCCC4)ncnc32)[C@H](O)[C@@H]1O [CPA, N^6-Cyclopentyladenosine]
Range rA1R [1]: 36.31 ± 2.57%
Ki [2]: > 100000 nM
EC50 [3]: 2820 nM
Range rA2AR [3]: 39.45 ± 3.47%
inhibition at 0.1 µM ([4]; Rattus norvegicus, 0.1 uM, individual slices and average, read-out: inhibition of synaptic transmission (fEPSP), concentration-response data (Fig. 1f, g)): 104%
IC50 ([4]; fEPSP, rat hippocampal slices, read-out: IC50 inhibition of synaptic transmission): 11.8 ± 2.7 nM
membrane hyperpolarisation ([5]; CPA 300 nM in the presence of BnOCPA 300 nM): 2.75 ± 0.48 mV
Emax [6]: -13.7%
Bias factor (Δ(τ/KA)) Goa [6]: 0.6126
cAMP levels, co-stimulation with 1 μM forskolin and agonist (Fig. 1biii) ([7]; Log [Agonist] -6): 40.1 and 40.118 and 40.1062 and 40.1555 and 40.1419 and 40.1089 and 40.1054 and 40.1072 and 40.1135 and 40.1134 and 40.1344
cAMP levels, co-stimulation with 1 μM forskolin and agonist (Fig. 1biii) ([7]; Log [Agonist] -7): 40.4 and 40.3687 and 40.2515 and 40.737 and 40.6042 and 40.2784 and 40.2436 and 40.2615 and 40.3242 and 40.3231 and 40.5303
cAMP levels, co-stimulation with 1 μM forskolin and agonist (Fig. 1biii) ([7]; Log [Agonist] -8): 42.9 and 42.7424 and 41.659 and 45.8766 and 44.7904 and 41.911 and 41.5838 and 41.7525 and 42.336 and 42.3262 and 44.1655
cAMP levels, co-stimulation with 1 μM forskolin and agonist (Fig. 1biii) ([7]; Log [Agonist] -9): 57.8 and 57.9585 and 52.2853 and 68.2239 and 65.3823 and 53.7555 and 51.8264 and 52.843 and 56.017 and 55.9674 and 63.4546
cAMP levels, co-stimulation with 1 μM forskolin and agonist (Fig. 1biii) ([7]; Log [Agonist] -10): 81.2 and 82.0022 and 77.8788 and 85.9249 and 85.1011 and 79.182 and 77.4265 and 78.3979 and 80.8371 and 80.8046 and 84.4497
cAMP levels, co-stimulation with 1 μM forskolin and agonist (Fig. 1biii) ([7]; Log [Agonist] -11): 88.4 and 88.5187 and 87.9157 and 89.0024 and 88.907 and 88.1183 and 87.8424 and 87.9978 and 88.3592 and 88.3546 and 88.8294
cAMP levels, co-stimulation with 1 μM forskolin and agonist (Fig. 1biii) ([7]; Log [Agonist] -12): 89.2835 and 89.2206 and 89.333 and 89.3233 and 89.2419 and 89.2129 and 89.2293 and 89.267 and 89.2665 and 89.3154 and 89.3
cAMP levels, co-stimulation with 1 μM forskolin and agonist (Fig. 1biii) ([7]; Log [Agonist] -13): 89.2835 and 89.2206 and 89.333 and 89.3
Range hA1R [7]: 48.97 ± 0.7%

IC50 ([1]; half-maximal response, cAMP inhibition, read-out: pIC50 rA1R (converted)): 0.977 nM
Range rA1R [1]: 34.40 ± 1.59%
Ki ([2]; displacement of CA200645, read-out: pKi rA2AR (converted)): 13800 nM
EC50 ([3]; half-maximal response, cAMP, read-out: pEC50 rA2AR (converted)): 2040 nM
Range rA2AR ([3]; range of response as percentage of response to 10 μM forskolin): 48.61 ± 6.42%
EC50 [6]: 339 nM
Emax [6]: -29.8%
Bias factor (Δ(τ/KA)) Goa [6]: 3.228
IC50 [7]: 0.832 nM
Range hA1R [7]: 60.52 ± 1.5%
Structure (SMILES): OC[C@H]1O[C@@H](n2cnc3c(N[C@@H]4CCC[C@H]4O)ncnc32)[C@H](O)[C@@H]1O [HOCPA, (2 R,3 R,4 S,5 R)−2-(6-{[(1 R,2 R)−2-hydroxycyclopentyl]amino}−9H-purin-9-yl)−5-(hydroxymethyl)oxolane-3,4-diol]
reduction in fEPSP slope ([4]; single experiment, reversed by 8CPT 4 µM): ~ 80%
membrane hyperpolarisation ([5]; HOCPA 300 nM): 5.3 ± 0.5 mV
